Patent US11337420B2, “Cryopreservation of juvenile stages of barnacles” (Planktonic AS, priority 2016, dated 2022)
Where two headings read alike, the source gives them in different places.

What was measured:
[1] = system: Barnacle nauplii stage I and II from Semibalanus balanoides; test: Cryopreservation, thawing and revitalization of nauplii, viability check (different cryoprotectants, volume ratios, equilibrium periods); assay type: in vivo
Procedure: (§1) Barnacle nauplii (Semibalanus balanoides or Balanus crenatus) were drained and concentrated (10% dry weight) and mixed 1:1 with a cryoprotectant (on ice). The mixture was filled, sealed and equilibrated in a pouch (600 gram consisting of 300 ml cryoprotectant and 300 ml barnacles) for 30 minutes at 5 ° C. before transferring to a controlled freezer. The pouch was put in an aluminum rack, and temperature loggers were put inside the pouch and in the freezer to measure air temperature. Alternatively smaller amount of about 60 g or vials were used in the tests.
(§2) After freezing from 5 to −42 ° C., with a duration of >12 hours using the disclosed method, the pouches were soaked in liquid nitrogen until −196 ° C. were homogenously achieved inside the pouches. The pouches were transferred to cryocontainers (with liquid nitrogen) of 175 liters, and stored for more than 48 hours. To check viability, the pouches were removed from the cryocontainer, crushed to get out the content and thawed in cold seawater (less than 5 ° C.). After 15 minutes, the thawed nauplii were washed on a 100 μm filter to remove the cryoprotectant. Revitalization was performed for >8 hours in an aerated tank with 30 PSU seawater (start temperature 2.5 ° C.).
Barnacle nauplii stage I and II from Semibalanus balanoides were treated with a 6 molar solution of dimethyl sulfoxide (DMSO) as cryoprotectant and 1:1 mixing between cryoprotectant and organisms. Equilibrium was performed for 30 minutes at 3 to 5° C.
Samples of these organisms were cryopreserved in a volume ratio of A) 30% cryoprotectant to 70% organisms (volume/volume) and B) 40% cryoprotectant to 60% organisms (volume/volume). The control was C) 50% cryoprotectant to 50% organisms (volume/volume). All tests were carried out in triplicate.
(1:1 volume ratio with organisms). Thereafter the organisms were cryopreserved by the disclosed method, stored in liquid nitrogen for 48 hours, thawed and revitalized. The barnacle nauplii were analyzed for their vitality using a binocular microscope.

nauplii = conditions: salt in the cryoprotectant solution compared to no salt addition
Description: The final salt concentration of NaCl is thereby preferably between 2.0 to 4.5%, more preferably between 3.0 to 3.8%, most preferred between 3.2 and 3.8%.

[2] = system: nauplii of Balanus amphitrite; conditions: 3 to 4 M, equilibration time up to 2 h; cited from earlier work
[3] = system: Barnacle nauplii stage I and II from Semibalanus balanoides or Balanus crenatus; conditions: 7.2 molar solution, 1:1 mixing between cryoprotectant and organisms
Procedure: as §1, §2

[4] = for content of ethylene glycol in drained barnacle nauplii: revitalization in 30 liters of seawater
Description: Immediately after thawing, the nauplii was drained for water and frozen again.
A small piece of frozen material was taken on a filter, and rinsed until it was thawed, and thereafter frozen and analyzed. […] When revitalized, the barnacle nauplii were drained again for seawater, and added 30 liters of seawater.

[5] = system: Barnacle nauplii stage I and II of Semibalanus balanoides
Procedure: Samples were taken out after 0, 1, 2, 4, 8, 12, and 24 hours and the cryoprotectant was washed out to check viability of the nauplii. Levels of viability were identified as 0, 1, 2, 3, 4 and 5. “0” represents no activity (dead nauplii), 1-3 are twitching of appendages less than pre-cryopreserved nauplii, but 3 are close to natural swimming. 4 are swimming as pre-cryopreserved nauplii, and 5 are over-stimulated nauplii.

aquatic organisms = aquatic organisms in general; cited from earlier work
[6] = 600 gram sample in 15 liter seawater, after 15 minutes

C[S+](C)[O-] [DMSO, dimethyl sulfoxide]
viability after thawing ([1]; 6 molar solution, 1:1 mixing, equilibrium 30 minutes at 3 to 5° C.): comparable to barnacle nauplii exposed to ethylene glycol

[Cl-].[Na+] [NaCl]
revitalization of nauplii (nauplii): improve the revitalization of nauplii compared to no salt addition

OCCO [ethylene glycol]
damage to nauplii [2]: did not cause damage | nauplii with natural swimming activity (level 4) after thawing [3]: > 50% | swimming activity level of the remaining nauplii after thawing [3]: 1-3 | equilibration of cryoprotectant with the organisms ([4]; 7.2 molar solution added to drained material): < 15% | content as share of the added ethylene glycol [4, 6]: < 2% | ethylene glycol concentration in nauplii [4, 6]: about 0.1 M | content of ethylene glycol in drained barnacle nauplii ([4]; after one hour): < 25 ppm | content of ethylene glycol in drained barnacle nauplii ([4]; after two hours, detection level): < 10 ppm | ethylene glycol concentration inside the organisms ([4]; second step: drained, 15 liter of seawater added for washing): < 300 ppm | ethylene glycol content in nauplii ([4]; time zero sample, rinsed until thawed, 7.2 M, volume ratio 1:1): 7400-11000 ppm | viability, difference between volume ratios ([1]; 30%, 40% or 50% cryoprotectant to 70%, 60% or 50% organisms (volume/volume), triplicate): no significant between the treatments in terms of viability | vitality, difference between equilibrium periods ([1]; incubated 0, 15, 30, 60 minutes in 7.2 M at 5 ° C., 1:1 volume ratio): No significant differences in vitality | vitality after equilibrium period ([1]; incubated 90 minutes in 7.2 M at 5 ° C., 1:1 volume ratio): less vital organisms than the other treatments | individuals showing relatively good swimming behavior ([5]; 7.2 molar ethylene glycol stock solution, on ice, even after 24 hour of exposure): 80-90% | level of viability of recovered nauplii ([5]; 7.2 molar ethylene glycol stock solution, on ice, even after 24 hour of exposure, cryoprotectant washed out): 2-3 | harm to nauplii in toxicity test ([5]; equilibrium period of 24 hours with 7.2 M (stock solution) ice cold): does not considerably harm barnacle nauplii | level regarded as non-toxic (aquatic organisms): ≤ 100 ppm

CC(O)CO (centres unmarked) [propylene glycol]
percentage of viable nauplii after thawing ([1]; 40% by volume mixed with 60% by volume seawater, volume ratio 1:1): minimal compared to ethylene glycol
